# Results from article PMC4460958 (Frontiers in Neurology, 2015).
# Biological target: T1, human dopamine transporter (hDAT) (Homo sapiens, UniProt Q01959)
# T1 construct: gene SLC6A3
# T1 sequence (Q01959 whole entry): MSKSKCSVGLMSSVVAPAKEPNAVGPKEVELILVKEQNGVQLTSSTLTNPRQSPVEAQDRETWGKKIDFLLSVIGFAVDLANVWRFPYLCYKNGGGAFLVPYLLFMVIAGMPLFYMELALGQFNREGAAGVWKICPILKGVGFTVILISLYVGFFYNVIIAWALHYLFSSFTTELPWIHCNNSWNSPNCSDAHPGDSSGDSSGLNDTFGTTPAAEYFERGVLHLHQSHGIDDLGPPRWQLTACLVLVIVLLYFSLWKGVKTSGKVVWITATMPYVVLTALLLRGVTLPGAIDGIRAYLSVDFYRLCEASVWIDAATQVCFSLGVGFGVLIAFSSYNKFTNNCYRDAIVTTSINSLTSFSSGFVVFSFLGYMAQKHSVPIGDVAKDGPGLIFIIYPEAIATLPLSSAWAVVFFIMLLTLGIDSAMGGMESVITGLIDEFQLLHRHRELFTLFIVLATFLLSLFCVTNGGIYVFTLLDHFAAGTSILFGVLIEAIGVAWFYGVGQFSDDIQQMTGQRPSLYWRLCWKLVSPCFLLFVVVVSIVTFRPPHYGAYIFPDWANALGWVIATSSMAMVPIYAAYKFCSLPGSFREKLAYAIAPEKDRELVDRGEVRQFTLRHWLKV
structure (smiles),measurement,value
"NCCc1ccc(O)c(O)c1 [DA, dopamine]","3H-dopamine uptake kinetics (Km, Vmax) in PAE cells stably expressing hDAT","Michaelis–Menten non-linear regression analysis was performed, providing transporter dopamine affinity (Km) and capacity (Vmax) for each condition"
